Data on twelve compounds can be found in patent US5686486A, “4-hydroxy-benzopyran-2-ones and 4-hydroxy-cycloalkyl[b]pyran-2-ones useful to treat retroviral infections” (priority 1995, dated 1997).

Values joined by “and” are separate entries in the source; they are usually repeats but may differ in a detail not shown here. Identical values can stand only once.

Test [1] deals with T1, HIV-1 protease (Human immunodeficiency virus type 1 group M subtype B, UniProt P04585). In words: biochemical. As to conditions: for inhibition at 0.123 µM: read-out: HIV-1 Protease % Inhib, dose 0.123 uM; for inhibition at 0.37 µM: read-out: HIV-1 Protease % Inhib, dose 0.370 uM; for inhibition at 1.1 µM: read-out: HIV-1 Protease % Inhib, dose 1.100 uM; for inhibition at 3.3 µM: read-out: HIV-1 Protease % Inhib, dose 3.300 uM; for inhibition at 10 µM: read-out: HIV-1 Protease % Inhib, dose 10.000 uM; for inhibition at 30 µM: read-out: HIV-1 Protease % Inhib, dose 30.000 uM. An outline of the steps: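 Percent inhibition derived from fluorescent cleavage product separated by filtration after streptavidin-bead capture of intact biotin/FITC substrate. Reaction: enzyme (10 μl, 0.1 μM stock) with substrate (20 μl, 0.2 μM stock) and compound, 1 h at room temperature in dark, pH 5.5 acetate buffer with 1.0 M NaCl and 0.05% NP-40.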

In test [2] the target is T1, HIV-1 protease. In words: biochemical. The following applies: read-out: HIV-1 FITC KI. An outline of the steps: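 Enzyme (40 nM stock) and substrate (200 μM stock) incubated with inhibitor, 24–48 two-fold serial concentrations, for 90 min at room temperature, then quenched with avidin beads. Nonlinear least-squares analysis gives Ki; a known-Ki inhibitor validates each run.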

`O=c1oc2c(c(O)c1C(c1cccc(NS(=O)(=O)c3cccc(N4CCCS4(=O)=O)c3)c1)C1CC1)CCCCCC2` (stereo not shown) [Example 357, N-[3-[Cyclopropyl[3-(2-isothiazolidinyl)phenyl]methyl-(5,6,7,8,9,10-hexahydro4-hydroxy-S,S'-dioxide)methyl]phenyl]-3-[(phenylsulfonyl)amino]4-2H-cycloocta[b]pyran2-one]: on HIV-1 protease [1], the inhibition at 0.123 µM stood at 104%, the inhibition at 0.37 µM was determined as 97.2%, the inhibition at 1.1 µM is 101% and the inhibition at 3.3 µM amounted to 98.3%. Also, on HIV-1 protease [1], the inhibition at 10 µM was 96.8% and the inhibition at 30 µM was found to be 89.6%. For the same compound, the Ki (usually the equilibrium dissociation constant of an inhibitor or competing ligand from its target) at HIV-1 protease [2] stood at 0.62 nM.

On to `CS(=O)(=O)Nc1cccc(C(c2c(O)c3c(oc2=O)CCCCC3)C2CC2)c1` (stereo not shown) [Example 364, N-[3-[Cyclopropyl(2,5,6,7,8,9-hexahydro-4-hydroxy-2-oxocyclohepta[b]pyran-3-yl)methyl]phenyl]-methanesulfonamide], for which, at HIV-1 protease [1], the inhibition at 0.37 µM is 17.2%, the inhibition at 1.1 µM came out at 53.5%, the inhibition at 3.3 µM was found to be 78.7% and the inhibition at 10 µM is 100%. For the same compound, on HIV-1 protease [1], the inhibition at 30 µM is 90.2%. Also, the Ki at HIV-1 protease [2] amounted to 118 nM.

As for `NC(=O)c1ccc(S(=O)(=O)Nc2cccc(C(c3c(O)c4c(oc3=O)CCCCCC4)C3CC3)c2)cc1` (stereo not shown) [Example 365A, 4-[[[3-[Cyclopropyl(5,6,7,8,9,10-hexahydro-4-hydroxy-2-oxo-2H-cycloocta[b]pyran-3-yl)methyl]phenyl]amino]sulfonyl]-benzamide], at HIV-1 protease [1], the inhibition at 0.123 µM worked out at 83.8%, the inhibition at 0.37 µM stood at 106%, the inhibition at 1.1 µM amounted to 115% and the inhibition at 3.3 µM is 116%. In addition, at HIV-1 protease [1], the inhibition at 10 µM was 117% and the inhibition at 30 µM worked out at 116%. In addition, the Ki at HIV-1 protease [2] was found to be 1.86 nM.

Consider `I.O=c1oc2c(c(O)c1C(c1cccc(NS(=O)(=O)CCCN3CCOCC3)c1)C1CC1)CCCCCC2` (stereo not shown) [Example 365B (Third Title Compound), N-[3-[Cyclopropyl(5,6,7,8,9,10-hexahydro-4-hydroxy-2-oxo-2H-cycloocta[b]pyran-3-yl)methyl]phenyl]-4-morpholinepropanesulfonamide hydrogen iodide salt], for which the “HIV-1 Protease % Inhib” value was 29.06% on HIV-1 protease [1] (dose 0.123 uM); 56.47% on HIV-1 protease [1] (dose 0.370 uM); 93.46% on HIV-1 protease [1] (dose 1.100 uM); 90.63% at HIV-1 protease [1] (dose 3.300 uM); 90.94% on HIV-1 protease [1] (dose 10.000 uM); 85.31% at HIV-1 protease [1] (dose 30.000 uM). Also, on HIV-1 protease [2], the Ki came to 14.3 nM.

On to `O=c1oc2c(c(O)c1C(c1cccc(NS(=O)(=O)CCCI)c1)C1CC1)CCCCCC2` (stereo not shown) [Example 365C, 3-Iodo-N-[3-[cyclopropyl(5,6,7,8,9,10-hexahydro-4-hydroxy-2-oxo-2H-cycloocta[b]pyran-3-yl)methyl]phenyl]-1-propanesulfonamide], for which, on HIV-1 protease [1], the inhibition at 0.123 µM came to 63%, the inhibition at 0.37 µM was determined as 93.6%, the inhibition at 1.1 µM came to 102% and the inhibition at 3.3 µM worked out at 71.5%. Also, at HIV-1 protease [1], the inhibition at 10 µM was 87.5% and the inhibition at 30 µM worked out at 83.5%. The Ki at HIV-1 protease [2] is 16.6 nM.

Regarding `CCCC(c1ccccc1)c1c(O)c2c(oc1=O)CCCCCC2` (stereo not shown) [Example 369, 5,6,7,8,9,10-Hexahydro-4-hydroxy-3-(1-phenylbutyl)-2H-cycloocta[b]pyran-2-one], at HIV-1 protease [1], the inhibition at 0.123 µM turned out to be 54.9%, the inhibition at 0.37 µM was 83.5%, the inhibition at 1.1 µM was 96% and the inhibition at 3.3 µM turned out to be 97.1%. Further, at HIV-1 protease [1], the inhibition at 10 µM turned out to be 111% and the inhibition at 30 µM amounted to 93.9%. Moreover, the Ki on HIV-1 protease [2] was found to be 28.5 nM.

Consider `CC(C)C(c1cccc(N)c1)c1c(O)c2c(oc1=O)CCCCCC2` (stereo not shown) [Example 371, 3-[1-(3-Aminophenyl)-2-methylpropyl]-5,6,7,8,9,10-hexahydro-4-hydroxy-2H-cycloocta[b]pyran-2-one], for which, at HIV-1 protease [1], the inhibition at 0.123 µM worked out at 86.8%, the inhibition at 0.37 µM was 109%, the inhibition at 1.1 µM is 110% and the inhibition at 3.3 µM is 113%. At HIV-1 protease [1], the inhibition at 10 µM was determined as 108% and the inhibition at 30 µM is 110%. Moreover, the Ki on HIV-1 protease [2] came out at 7.35 nM.

Turning to `CC(C)C(c1cccc(NS(=O)(=O)c2ccc(Cl)cc2)c1)c1c(O)c2c(oc1=O)CCCCCC2` (stereo not shown) [Example 373, 4-Chloro-N-[3-[1-(6,7,8,9,10-hexahydro-4-hydroxy-2-oxo-2H-cycloocta[b]pyran-3-yl)-2-methylpropyl]phenyl]-benzenesulfonamide], at HIV-1 protease [1], the inhibition at 0.123 µM is 31.8%, the inhibition at 0.37 µM came out at 68.9%, the inhibition at 1.1 µM was determined as 87% and the inhibition at 3.3 µM is 97.1%. At HIV-1 protease [1], the inhibition at 10 µM was found to be 102% and the inhibition at 30 µM is 105%. The Ki on HIV-1 protease [2] is 18.3 nM.

Consider `CC(C)C(c1cccc(NS(=O)(=O)c2cn(C)cn2)c1)c1c(O)c2c(oc1=O)CCCCCC2` (stereo not shown) [Example 374, N-[3-[1-(5,6,7,8,9,10-Hexahydro-4-hydroxy-2-oxo-2H-cycloocta[b]pyran-3-yl)-2-methylpropyl]phenyl]-1-methyl-1H-imidazole4-sulfonamide], for which, on HIV-1 protease [1], the inhibition at 0.123 µM was determined as 121%, the inhibition at 0.37 µM stood at 121%, the inhibition at 1.1 µM stood at 131% and the inhibition at 3.3 µM worked out at 125%. At HIV-1 protease [1], the inhibition at 10 µM was found to be 129% and the inhibition at 30 µM came to 128%. Moreover, on HIV-1 protease [2], the Ki is 1.3 nM and 0.72 nM.

Consider `CCCC(c1cccc(N)c1)c1c(O)c2c(oc1=O)CCCCCC2` (stereo not shown) [Example 376, 3-[1-(3-Aminophenyl)butyl]-5,6,7,8,9,10-hexahydro4-hydroxy-2H-cycloocta[b]pyran-2-one], for which, at HIV-1 protease [1], the inhibition at 0.123 µM was 10.6%, the inhibition at 0.37 µM is 33.7%, the inhibition at 1.1 µM came to 75.3% and the inhibition at 3.3 µM came out at 96.5%. Further, at HIV-1 protease [1], the inhibition at 10 µM was 102% and the inhibition at 30 µM amounted to 103%. The Ki at HIV-1 protease [2] was determined as 195 nM.

As to `CCCC(c1cccc(NS(=O)(=O)c2ccc(Cl)cc2)c1)c1c(O)c2c(oc1=O)CCCCCC2` (stereo not shown) [Example 377, Benzenesulfonamide, 4-chloro-N-[3-[1-(5,6,7,8,9,10-hexahydro-4-hydroxy-2-oxo-2H-cycloocta[b]pyran-3-yl)butyl]phenyl]-], the “HIV-1 Protease % Inhib” value is 66.07% and 114.03% at HIV-1 protease [1] (dose 3.300 uM); 83.74% and 107.37% at HIV-1 protease [1] (dose 10.000 uM); 101.29% on HIV-1 protease [1] (dose 30.000 uM). The inhibition at 0.123 µM at HIV-1 protease [1] was determined as 92.9%. Besides, the inhibition at 30 µM on HIV-1 protease [1] came out at 94.7%. In addition, on HIV-1 protease [2], the Ki worked out at 4 nM.

Turning to `CCCC(c1cccc(NS(=O)(=O)c2ccc(C#N)cc2)c1)c1c(O)c2c(oc1=O)CCCCCC2` (stereo not shown) [Example 378, Benzenesulfonamide, 4-cyano-N-[3-[1-(5,6,7,8,9,10-hexahydro-4-hydroxy-2-oxo-2H-cycloocta[b]pyran-3-yl)butyl]phenyl]-], at HIV-1 protease [1], the inhibition at 0.123 µM was determined as 103%, the inhibition at 0.37 µM was determined as 111%, the inhibition at 1.1 µM came to 112% and the inhibition at 3.3 µM came out at 118%. Also, on HIV-1 protease [1], the inhibition at 10 µM turned out to be 112% and the inhibition at 30 µM is 112%. The Ki at HIV-1 protease [2] was 1.06 nM.
